Key:
[1] = Absorbance/emission spectra in ethanol; type: physicochemical; details: for Abs Max / Flourescence Ex Max / Fluorescence Em Max: 0.25 μM solutions in ethanol; for Extinction Coefficient: ethanol, approximate, maximum absorbance divided by nominal concentration
Procedure: Referring now to Tables 1 and 2, there are shown the absorbance and emission maxima of some example compounds of the present invention. Absorption and Fluorescence spectra were run using 0.25 μM solutions in ethanol on a Jasco, Inc. UV-530 UV/VIS spectrophotometer and FP 750 spectrofluorometer, respectively. Approximate extinction coefficients were estimated from the absorbance scans by dividing the maximum absorbance by the nominal concentration ([…]).

U937 cells = assay: Probe effects on cell viability and cell growth (Maximum Tolerated Concentration); type: cell-based; details: for Maximum Tolerated Concentration (MTC): cultured U937 cells, 10^7 cells/ml, labeled 5 min in Diluent C, cultured 22-24 hours
Procedure: U937 cells were stained at a concentration of 10^7 cells/ml with increasing concentrations of probe by rapidly admixing 2× cells suspended in Diluent C with 2× probe in Diluent C. After 5 minutes at room temperature, the staining was stopped by the addition of cell culture medium. Cells were then washed thoroughly and cultured under standard conditions for 22-24 hours. Cell numbers were compared to those in a control culture treated with diluent alone.
Cells labeled with both dyes were also monitored daily for changes in mean fluorescence intensity (MFI), using a FACSAria flow cytometer with 488 nm excitation for PKH26 and 405 nm excitation for F305B. […] However, initial MFI's were high enough to detect at least 4 and possibly 5 or 6 cell doublings before the fluorescence intensity distribution of labeled cells began to overlap substantially with that of unstained cells. Color overlap of F305B into filter windows used for detection of 488 nm or 633 nm excited dyes was minimal. Since 405 nm excited dyes are less commonly available than 488 nm and 633 nm excited dyes of this nature were therefore deemed useful, despite their somewhat lesser signal:noise ratio, for providing increased flexibility in choice of spectral window to be used for monitoring membrane labeled cells and their proliferation.
Cells labeled with both dyes were also monitored daily for changes in mean fluorescence intensity (MFI), using a FACSCalibur flow cytometer with 488 nm excitation for PKH26 and 633 nm excitation for F308B.
Cells labeled either with PKH26 or with F319B were also monitored daily for changes in mean fluorescence intensity (MFI), using a FACSAria flow cytometer with 488 nm excitation for PKH26 and 785 nm excitation for F319B. […] Although the cells could only be followed for 4-5 doublings when labeled with PKH26, at least 6 doublings could be monitored using F319B before the fluorescence intensity distribution of labeled cells began to overlap substantially with that of unstained cells. Color overlap of F319B was minimal in filter windows used for detection of fluorescein, phycoerthyrin (PE), allophycocyanin (APC), and PE-Texas Red, PE-Cy5 or PerCP-Cy5.5 tandem conjugate dyes.

[2] = Solubility in Diluent C vs ethanol control; type: physicochemical; details: 1:50 dilution of 1 mM stock, 30 min room temperature, centrifuged, % of absorbance of 100% ethanol control
Procedure: Effects of the various combinations of asymmetrical and symmetrical side chains and methine bridges on the solubility of the compounds of the present invention were examined. Solubility in a commercially available probe diluent. Diluent C, was also tested. Triplicate 1:50 dilutions of stock 1 mM probe solutions were made in either ethanol or test diluent. After 30 minutes at room temperature solutions were centrifuged at 10,000×g for 10 minutes to remove any microagregates and 100 ul aliquots were transferred to 2.0 ml of ethanol for absorbance determinations. Based on the teachings of Leung et al. and on solubility specifications found on Sigma Certificates of Analysis for the commercial diluent (diluent supernatant absorbance at 30 minutes at least 60% of ethanol supernatant absorbance after 30 minutes), a preliminary specification at least 60% of the ethanol control was set as a surrogate for solubility sufficient to achieve cell labeling with S/N ratios greater than 100 and to minimize potential problems with brightness or reproducibility of labeling. Certain example compounds were soluble after 30 minutes in Diluent C.
Diluent C is a commercially available isotonic salt-free vehicle (Sigma-Aldrich Chemical Company) that is commonly used.

[3] = U937 cells stained at each dye's MTC, monitored daily for 4 days (approximately 4 doublings)

Row | Structure (SMILES) | Abs Max [1] | Flourescence Ex Max [1] | Fluorescence Em Max [1] | Extinction Coefficient [1] | cell growth compared with PKH26-stained cells (U937 cells; [3]) | Maximum Tolerated Concentration (MTC) (U937 cells) | Solubility >60% of EtOH Control @ 30 min [2] | cell growth compared with PKH26-stained cells (U937 cells; U937 cells, F319B 12.5 micromol/L vs PKH26 12 micromol/L, monitored daily for 6 days)
1 | CCCCCCCCCCCCCCCCCCCCCC[N+]1=C(/C=C/C=C/C=C2/N(CCCCCCCCCCCCCC)c3ccc([N+](=O)[O-])cc3C2(C)C)C(C)(C)c2ccccc21.[I-] [Compound F308B] | 649 nm | 493 nm | 671 nm | 134,610 M^−1cm^−1 | comparable growth | 15 µmol/L | – | –
2 | CCCCCCCCCCCCCCCCN1/C(=C\C=C\c2oc3ccc(C(C)(C)C)cc3[n+]2CCCCCCCCCCCCCCCC)Oc2ccc(C(C)(C)C)cc21.[I-] [Compound F304B] | 493 nm | 494 nm | 508 nm | 160,000 M^−1cm^−1 | – | – | – | –
3 | CCCCCCCCCCCCCCCCCCN1/C(=C\C=C\c2oc3ccc(C(C)(C)C)cc3[n+]2CCCCCCCCCCCCCCCCCC)Oc2ccc(C(C)(C)C)cc21.[I-] [Compound F306B] | 492 nm | 493 nm | 508 nm | 135,000 M^−1cm^−1 | – | – | – | –
4 | CCCCCCCCCCCCCCCCCCCCCC[n+]1c(/C=C2\Sc3ccccc3N2CCCCCCCCCCCCCC)sc2ccccc21.[I-] [Compound F305B] | 425 nm | 420 nm | 461 nm | 81,200 M^−1cm^−1 | comparable growth | 20 µmol/L | – | –
5 | CCCCCCCCCCCCCCCCCCCCCC[N+]1=C(/C=C/C=C/C=C/C=C2/N(CCCCCCCCCCCCCC)c3ccc4ccccc4c3C2(C)C)C(C)(C)c2c1ccc1ccccc21.[I-] [Compound F277A] | 788 nm | 790 nm | 814 nm | 205,400 M^−1cm^−1 | – | – | 95% | –
6 | CCCCCCCCCCCCCCCCCCCCCC[N+]1=C(/C=C/C=C/C=C/C=C2/N(CCCCCCCCCCCCCC)c3ccc([N+](=O)[O-])cc3C2(C)C)C(C)(C)c2ccccc21.[I-] [Compound F319B] | 743 nm | – | 776 nm | 112,500 M^−1cm^−1 | – | 20 µmol/L | – | comparable growth

— patent US9597416B2, “Fluorescent membrane intercalating probes and methods for their use” (PHANOS TECHNOLOGIES, INC., priority 2005, dated 2017)
